From patent US20230146455A1, “TREATMENT OF INFLAMMATORY DISEASES WITH PEPTIDES AND PHARMACEUTICAL COMPOSITIONS” (Yuyu Pharma, Inc., priority 2020, published 2023)
“And” between values parts separate entries of the source, which are not always exact repeats. Equal entries are not always repeated. Where a SMILES comes first, the peptide text is derived from it. [ ]: non-standard residue; d: D form. Hyp = O=C(O)[C@@H]1C[C@@H](O)CN1

Test system: VEGF-A
Assay: Example 9 Luminex, LPS hPBMCs: VEGF-A
Format: cell-based, human
Details: for conc/live cell / Concentration: Bead VEGF-A; for Concentration: dilution 2.0
Method: Treatment Human PBMCs were pretreated with YY-101, YDE-011 and YDE-043 or reference compound; Xiidra® at various concentration (ranging from 1 nM to 100 uM) for 2 h before stimulation. An equal volume of 0.5% DMSO was used as a vehicle control. Then, the cells were treated with LPS at 5 ug/ml. The supernatants from treated cells were harvested at 24 h and placed in a 96 well for Luminex cytokine & chemokine profiling using a Luminex 200 multiplex assay (Luminex; R&D system, USA).
The main study arm with triplicate wells per group in a 24-well plate: • 1. Blank • 2. PBMC: 0.5% DMSO • 3. PBMC+LPS (5 ug/ml) • 4. PBMC+YY-101 100 uM • 5. PBMC+YY-101 10 uM • 6. PBMC+YY-101 1 uM • 7. PBMC+YY-101 0.1 uM • 8. PBMC+YY-101 0.01 uM • 9. PBMC+LPS (5 ug/ml)+Xiidra®100 uM • 10. PBMC+LPS (5 ug/ml)+Xiidra® 10 uM • 11. PBMC+LPS (5 ug/ml)+Xiidra® 1 uM • 12. PBMC+LPS (5 ug/ml)+Xiidra®0.1 uM • 13. PBMC+LPS (5 ug/ml)+Xiidra®0.01 uM • 14. PBMC+LPS (5 ug/ml)+Xiidra®0.001 uM • 15. PBMC+LPS (5 ug/ml)+YY-101 100 uM • 16. PBMC+LPS (5 ug/ml)+YY-101 10 uM • 17. PBMC+LPS (5 ug/ml)+YY-101 1 uM • 18. PBMC+LPS (5 ug/ml)+YY-101 0.1 uM • 19. PBMC+LPS (5 ug/ml)+YY-101 0.01 uM • 20. PBMC+LPS (5 ug/ml)+YY-101 0.001 uM • 21. PBMC+LPS (5 ug/ml)+YDE-011 100 uM • 22. PBMC+LPS (5 ug/ml)+YDE-011 10 uM • 23. PBMC+LPS (5 ug/ml)+YDE-011 1 uM • 24. PBMC+LPS (5 ug/ml)+YDE-011 0.1 uM • 25. PBMC+LPS (5 ug/ml)+YDE-011 0.01 uM • 26. PBMC+LPS (5 ug/ml)+YDE-011 0.001 uM • 27. PBMC+LPS (5 ug/ml)+YDE-043 100 uM • 28. PBMC+LPS (5 ug/ml)+YDE-043 10 uM • 29. PBMC+LPS (5 ug/ml)+YDE-043 1 uM • 30. PBMC+LPS (5 ug/ml)+YDE-043 0.1 uM • 31. PBMC+LPS (5 ug/ml)+YDE-043 0.01 uM • 32. PBMC+LPS (5 ug/ml)+YDE-043 0.001 uM
Multiplex assay was used to measure 30 cytokines and chemokines. The 1:2, 1:10 and 1:200 diluted cell supernatant and serial dilution of the standard were dispensed into a 96 well plate at 50 ul/well. Then, the pre-mixed cocktail of antibody-coated magnetic beads was dispensed at 50 ul/well and incubated at room temperature for 2 h in a horizontal orbital microplate shaker at 800±500 rpm. The beads were washed using a magnetic device to prevent loss. The biotin-antibody was dispensed in 50 ul of each well and incubated at room temperature for 1 h in a shaker at 800±500 rpm. After washing, streptavidin-PE was added at 50 ul/well and incubated at room temperature for 30 min in a shaker under the same conditions. Finally, after washing, wash buffer (100 ul/well) was added to the plate and incubated in a shaker for 2 min. The Luminex™ 200 setting were set according to the manufacturer's protocol. The data was calculated with a standard five-parameter logistic nonlinear regression analysis of the data (xPonent software 4.2, USA). The levels of cytokine/chemokine are normalized to the live cell counts (1×10^5 cells/mL) and presented as concentrations per mL (pg/mL or ng/mL).

[1] = PBMC + LPS(5 ug/ml) + test article 0.001 uM, Mean
[2] = PBMC + LPS(5 ug/ml) + test article 0.001 uM, single replicates
[3] = PBMC + LPS(5 ug/ml) + test article 0.01 uM, Mean
[4] = PBMC + LPS(5 ug/ml) + test article 0.01 uM, single replicates
[5] = PBMC + LPS(5 ug/ml) + test article 0.1 uM, Mean
[6] = PBMC + LPS(5 ug/ml) + test article 0.1 uM, single replicates
[7] = PBMC + LPS(5 ug/ml) + test article 1 uM, Mean
[8] = PBMC + LPS(5 ug/ml) + test article 1 uM, single replicates
[9] = PBMC + LPS(5 ug/ml) + test article 10 uM, Mean
[10] = PBMC + LPS(5 ug/ml) + test article 10 uM, single replicates
[11] = PBMC + LPS(5 ug/ml) + test article 100 uM, Mean
[12] = PBMC + LPS(5 ug/ml) + test article 100 uM, single replicates

SMILES: CC(C)C[C@H](NC(=O)[C@H](CCC(N)=O)NC(=O)CNC(=O)[C@@H]1C[C@@H](O)CN1)C(=O)NCC(=O)O [YDE-043] (H-[Hyp]GQLG-OH; N-terminus and C-terminus assumed)
- conc/live cell [1]: 0.7 pg/10^5
- Concentration [1]: 3.6 pg/mL
- Concentration [2]: 3.6 pg/mL
- conc/live cell [2]: 0.8 pg/10^5 (2×) and 0.6 pg/10^5
- conc/live cell [3]: 0.1 pg/10^5
- Concentration [3]: 0.6 pg/mL
- Concentration [4]: 0.6 pg/mL
- conc/live cell [4]: 0.1 pg/10^5
- conc/live cell [5]: 0.1 pg/10^5
- Concentration [5]: 0.6 pg/mL
- Concentration [6]: 0.6 pg/mL
- conc/live cell [6]: 0.1 pg/10^5
- conc/live cell [7]: 0.8 pg/10^5
- Concentration [7]: 4.4 pg/mL
- Concentration [8]: 6.1 pg/ml and 3.6 pg/ml (2×)
- conc/live cell [8]: 1.1 pg/10^5 and 0.7 pg/10^5 (2×)
- conc/live cell [9]: 0.7 pg/10^5
- Concentration [9]: 5.5 pg/mL
- Concentration [10]: 6.1 pg/mL and 4.9 pg/mL
- conc/live cell [10]: 0.0 pg/10^5 and 1.1 pg/10^5 and 0.9 pg/10^5
- conc/live cell [11]: 0.4 pg/10^5
- Concentration [11]: 4.9 pg/mL
- Concentration [12]: 4.9 pg/mL
- conc/live cell [12]: 0.8 pg/10^5 and 0.0 pg/10^5

SMILES: CC(C)C[C@H](NC(=O)CNC(=O)[C@H](CC(C)C)NC(=O)[C@H](CCC(N)=O)NC(=O)CNC(=O)[C@@H]1C[C@@H](O)CN1)C(=O)N[C@@H](C)C(=O)NCC(=O)N1CCC[C@H]1C(=O)N[C@@H](CCCCN)C(=O)O [YDE-011] (H-[Hyp]GQLGLAGPK-OH)
- conc/live cell [7]: 0.3 pg/10^5
- Concentration [7]: 2.8 pg/mL
- Concentration [8]: 0.6 pg/mL
- conc/live cell [8]: 0.0 pg/10^5 and 0.1 pg/10^5
- conc/live cell [9]: 0.3 pg/10^5
- Concentration [9]: 2.1 pg/mL
- Concentration [10]: 3.6 pg/mL and 0.6 pg/mL
- conc/live cell [10]: 0.7 pg/10^5 and 0.0 pg/10^5 and 0.1 pg/10^5
- conc/live cell [11]: 0.0 pg/10^5
- conc/live cell [12]: 0.0 pg/10^5
- Concentration, Bead name: VEGF-A [1]: 4.3 pg/mL
- MFI, Bead name: VEGF-A [1]: −0.4
- conc/live cell, Bead name: VEGF-A [1]: 0.8 pg/10^5
- Concentration, Bead name: VEGF-A [2]: 6.1 pg/ml (2×) and 0.6 pg/ml
- MFI, Bead name: VEGF-A [2]: 0.3 (2×) and −1.8
- conc/live cell, Bead name: VEGF-A [2]: 1.4 pg/10^5 and 0.1 pg/10^5 and 1.1 pg/10^5
- Concentration, Bead name: VEGF-A [3]: 2.8 pg/mL
- MFI, Bead name: VEGF-A [3]: −1.6
- conc/live cell, Bead name: VEGF-A [3]: 0.3 pg/10^5
- Concentration, Bead name: VEGF-A [4]: 4.9 pg/mL and 0.6 pg/mL
- MFI, Bead name: VEGF-A [4]: −0.3 and −2.8 and −1.8
- conc/live cell, Bead name: VEGF-A [4]: 0.8 pg/10^5 and 0.0 pg/10^5 and 0.1 pg/10^5
- Concentration, Bead name: VEGF-A [5]: 0.6 pg/mL
- MFI, Bead name: VEGF-A [5]: −2.1
- conc/live cell, Bead name: VEGF-A [5]: 0.1 pg/10^5
- Concentration, Bead name: VEGF-A [6]: 0.6 pg/mL
- MFI, Bead name: VEGF-A [6]: −1.8 (2×) and −2.8
- conc/live cell, Bead name: VEGF-A [6]: 0.1 pg/10^5 (2×) and 0.0 pg/10^5
- Concentration, Bead name: VEGF-A [8]: 4.9 pg/mL
- MFI, Bead name: VEGF-A [8]: −0.3
- conc/live cell, Bead name: VEGF-A [8]: 0.9 pg/10^5
